In publication PMC12454493, “Insight on novel sulfamoylphenyl pyrazole derivatives as anticancer carbonic anhydrase inhibitors” (Molecular Diversity, 2024):
Where “and” joins values, the source holds several entries; their conditions need not be identical. Identical values can stand only once.

What was measured:
CCRF-CEM = test: NCI-60 one-dose SRB screen (Leukemia); type: cell-based; details: Homo sapiens, single dose 10 µM, 48 h, read-out: Growth inhibition percent (GI %)
HL-60(TB) = test: NCI-60 one-dose SRB screen (Leukemia); type: cell-based; details: Homo sapiens, single dose 10 µM, 48 h, read-out: Growth inhibition percent (GI %)
K-562 = test: NCI-60 one-dose SRB screen (Leukemia); type: cell-based; details: Homo sapiens, K562, single dose 10 µM, 48 h, read-out: Growth inhibition percent (GI %)
MOLT-4 = test: NCI-60 one-dose SRB screen (Leukemia); type: cell-based; details: Homo sapiens, single dose 10 µM, 48 h, read-out: Growth inhibition percent (GI %)
RPMI-8226 = test: NCI-60 one-dose SRB screen (Leukemia); type: cell-based; details: Homo sapiens, single dose 10 µM, 48 h, read-out: Growth inhibition percent (GI %)
SR = test: NCI-60 one-dose SRB screen (Leukemia); type: cell-based; details: Homo sapiens, single dose 10 µM, 48 h, read-out: Growth inhibition percent (GI %)
COLO 205 = test: NCI-60 one-dose SRB screen (Colon Cancer); type: cell-based; details: Homo sapiens, single dose 10 µM, 48 h, read-out: Growth inhibition percent (GI %)
HCC-2998 = test: NCI-60 one-dose SRB screen (Colon Cancer); type: cell-based; details: Homo sapiens, single dose 10 µM, 48 h, read-out: Growth inhibition percent (GI %)
HCT-116 = test: NCI-60 one-dose SRB screen (Colon Cancer); type: cell-based; details: Homo sapiens, single dose 10 µM, 48 h, read-out: Growth inhibition percent (GI %)
HCT-15 = test: NCI-60 one-dose SRB screen (Colon Cancer); type: cell-based; details: Homo sapiens, single dose 10 µM, 48 h, read-out: Growth inhibition percent (GI %)
HT29 = test: NCI-60 one-dose SRB screen (Colon Cancer); type: cell-based; details: Homo sapiens, HT-29, single dose 10 µM, 48 h, read-out: Growth inhibition percent (GI %)
KM12 = test: NCI-60 one-dose SRB screen (Colon Cancer); type: cell-based; details: Homo sapiens, single dose 10 µM, 48 h, read-out: Growth inhibition percent (GI %)
SW-620 = test: NCI-60 one-dose SRB screen (Colon Cancer); type: cell-based; details: Homo sapiens, single dose 10 µM, 48 h, read-out: Growth inhibition percent (GI %)
LOX IMVI = test: NCI-60 one-dose SRB screen (Melanoma); type: cell-based; details: Homo sapiens, single dose 10 µM, 48 h, read-out: Growth inhibition percent (GI %)
M14 = test: NCI-60 one-dose SRB screen (Melanoma); type: cell-based; details: Homo sapiens, single dose 10 µM, 48 h, read-out: Growth inhibition percent (GI %)
MALME-3M = test: NCI-60 one-dose SRB screen (Melanoma); type: cell-based; details: Homo sapiens, single dose 10 µM, 48 h, read-out: Growth inhibition percent (GI %)
MDA-MB-435 = test: NCI-60 one-dose SRB screen (Melanoma); type: cell-based; details: Homo sapiens, single dose 10 µM, 48 h, read-out: Growth inhibition percent (GI %)
SK-MEL-28 = test: NCI-60 one-dose SRB screen (Melanoma); type: cell-based; details: Homo sapiens, single dose 10 µM, 48 h, read-out: Growth inhibition percent (GI %)
SK-MEL-2 = test: NCI-60 one-dose SRB screen (Melanoma); type: cell-based; details: Homo sapiens, single dose 10 µM, 48 h, read-out: Growth inhibition percent (GI %)
SK-MEL-5 = test: NCI-60 one-dose SRB screen (Melanoma); type: cell-based; details: Homo sapiens, single dose 10 µM, 48 h, read-out: Growth inhibition percent (GI %)
UACC-257 = test: NCI-60 one-dose SRB screen (Melanoma); type: cell-based; details: Homo sapiens, single dose 10 µM, 48 h, read-out: Growth inhibition percent (GI %)
UACC-62 = test: NCI-60 one-dose SRB screen (Melanoma); type: cell-based; details: Homo sapiens, single dose 10 µM, 48 h, read-out: Growth inhibition percent (GI %)
IGROV1 = test: NCI-60 one-dose SRB screen (Ovarian cancer); type: cell-based; details: Homo sapiens, IGROV-1, single dose 10 µM, 48 h, read-out: Growth inhibition percent (GI %)
NCI/ADR-RES = test: NCI-60 one-dose SRB screen (Ovarian cancer); type: cell-based; details: Homo sapiens, single dose 10 µM, 48 h, read-out: Growth inhibition percent (GI %)
OVCAR-3 = test: NCI-60 one-dose SRB screen (Ovarian cancer); type: cell-based; details: Homo sapiens, single dose 10 µM, 48 h, read-out: Growth inhibition percent (GI %)
OVCAR-4 = test: NCI-60 one-dose SRB screen (Ovarian cancer); type: cell-based; details: Homo sapiens, single dose 10 µM, 48 h, read-out: Growth inhibition percent (GI %)
OVCAR-8 = test: NCI-60 one-dose SRB screen (Ovarian cancer); type: cell-based; details: Homo sapiens, single dose 10 µM, 48 h, read-out: Growth inhibition percent (GI %)
786-0 = test: NCI-60 one-dose SRB screen (Renal Cancer); type: cell-based; details: Homo sapiens, single dose 10 µM, 48 h, read-out: Growth inhibition percent (GI %)
A498 = test: NCI-60 one-dose SRB screen (Renal Cancer); type: cell-based; details: Homo sapiens, single dose 10 µM, 48 h, read-out: Growth inhibition percent (GI %)
ACHN = test: NCI-60 one-dose SRB screen (Renal Cancer); type: cell-based; details: Homo sapiens, single dose 10 µM, 48 h, read-out: Growth inhibition percent (GI %)
CAKI-1 = test: NCI-60 one-dose SRB screen (Renal Cancer); type: cell-based; details: Homo sapiens, single dose 10 µM, 48 h, read-out: Growth inhibition percent (GI %)
RXF 393 = test: NCI-60 one-dose SRB screen (Renal Cancer); type: cell-based; details: Homo sapiens, single dose 10 µM, 48 h, read-out: Growth inhibition percent (GI %)
SN12C = test: NCI-60 one-dose SRB screen (Renal Cancer); type: cell-based; details: Homo sapiens, single dose 10 µM, 48 h, read-out: Growth inhibition percent (GI %)
TK-10 = test: NCI-60 one-dose SRB screen (Renal Cancer); type: cell-based; details: Homo sapiens, single dose 10 µM, 48 h, read-out: Growth inhibition percent (GI %)
UO-31 = test: NCI-60 one-dose SRB screen (Renal Cancer); type: cell-based; details: Homo sapiens, single dose 10 µM, 48 h, read-out: Growth inhibition percent (GI %)
DU-145 = test: NCI-60 one-dose SRB screen (Prostate Cancer); type: cell-based; details: Homo sapiens, single dose 10 µM, 48 h, read-out: Growth inhibition percent (GI %)
PC-3 = test: NCI-60 one-dose SRB screen (Prostate Cancer); type: cell-based; details: Homo sapiens, single dose 10 µM, 48 h, read-out: Growth inhibition percent (GI %)
BT-549 = test: NCI-60 one-dose SRB screen (Breast Cancer); type: cell-based; details: Homo sapiens, single dose 10 µM, 48 h, read-out: Growth inhibition percent (GI %)
HS 578T = test: NCI-60 one-dose SRB screen (Breast Cancer); type: cell-based; details: Homo sapiens, single dose 10 µM, 48 h, read-out: Growth inhibition percent (GI %)
MCF-7 = test: NCI-60 one-dose SRB screen (Breast Cancer); type: cell-based; details: Homo sapiens, MCF7, single dose 10 µM, 48 h, read-out: Growth inhibition percent (GI %)
MDA-MB-231/ATCC = test: NCI-60 one-dose SRB screen (Breast Cancer); type: cell-based; details: Homo sapiens, single dose 10 µM, 48 h, read-out: Growth inhibition percent (GI %)
MDA-MB-468 = test: NCI-60 one-dose SRB screen (Breast Cancer); type: cell-based; details: Homo sapiens, single dose 10 µM, 48 h, read-out: Growth inhibition percent (GI %)
T-47D = test: NCI-60 one-dose SRB screen (Breast Cancer); type: cell-based; details: Homo sapiens, T47D, single dose 10 µM, 48 h, read-out: Growth inhibition percent (GI %)
hCA IX = hCA IX (Homo sapiens, UniProt Q16790); test: CA inhibitory activity, spectrophotometric p-NPA assay; type: biochemical; details: p-NPA substrate, pH 7.5, 25 °C, triplicate; read-out: IC50 (µM) ± SD hCA IX
hCA XII = hCA XII (Homo sapiens, UniProt O43570); test: as above; type: biochemical; details: p-NPA substrate, pH 7.5, 25 °C, triplicate; read-out: IC50 (µM) ± SD hCA XII
Sequence of hCA XII (O43570 25-354): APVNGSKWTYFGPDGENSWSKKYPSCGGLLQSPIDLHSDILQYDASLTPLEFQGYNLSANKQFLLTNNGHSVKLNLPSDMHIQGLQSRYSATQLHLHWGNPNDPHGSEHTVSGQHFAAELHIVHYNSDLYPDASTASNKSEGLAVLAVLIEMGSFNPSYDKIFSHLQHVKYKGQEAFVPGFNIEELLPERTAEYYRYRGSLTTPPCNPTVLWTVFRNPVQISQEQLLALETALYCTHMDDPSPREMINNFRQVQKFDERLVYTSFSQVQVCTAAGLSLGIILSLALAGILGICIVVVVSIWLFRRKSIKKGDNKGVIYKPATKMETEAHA
Description: The software used to calculate CA IC50 along with statistical analysis of the results is GraphPad Prism 9.00. Results were estimated by using one-way ANOVA and the Bonferroni’s multiple comparisons posthoc test was performed (P < 0.05) [46]
Carbonic anhydrase inhibitory activity:
The spectrophotometric assay was conducted in HEPES-Tris buffer, NaCl of pH 7.5 (20mM) at 25◦C. Each inhibitory well-consisted of 50 μL of assay buffer solution, 20 μL of hCA enzyme solution (20 ng/μL in Assay Buffer), and 50 μL of test compound in HPLC grade DMSO (maintain 10% of the final concentration). The mixture solution was
Substrate p-nitrophenyl acetate (p-NPA) (0.7mM) was prepared in HPLC grade methanol and the reaction was started by adding 20 μL to a well in a 96-well-plate. The amount of product formed was measured for 30 min continuously at 1 min intervals at 400 nm in a 96-well-plate using xMARK microplate spectrophotometer, Bio-Rad (USA). The activity of the controlled compound was taken as 100%. All experiments were carried out in triplicates of each used concentration, and results are represented as a

CCOC(=O)c1ccc(NC(=O)COC(=O)c2cn(-c3ccc(S(N)(=O)=O)cc3)nc2-c2ccc(OC)cc2)cc1 [Compound 5c, 2-[(4-(Ethoxycarbonyl)phenyl)amino]-2-oxoethyl 3-(4-methoxyphenyl)-1-(4-sulfamoylphenyl)-1H-pyrazole-4-carboxylate]
inhibition at 10 µM (CCRF-CEM): 62.6%
inhibition at 10 µM (HL-60(TB)): 48.4%
inhibition at 10 µM (K-562): 61.7%
inhibition at 10 µM (MOLT-4): 65.9%
inhibition at 10 µM (RPMI-8226): 58.6%
inhibition at 10 µM (SR): 64.6%
inhibition at 10 µM (COLO 205): 25.1%
inhibition at 10 µM (HCC-2998): < 5%
inhibition at 10 µM (HCT-116): 35.2%
inhibition at 10 µM (HCT-15): 48.5%
inhibition at 10 µM (HT29): 17.3%
inhibition at 10 µM (KM12): 26.2%
inhibition at 10 µM (SW-620): 7.9%
inhibition at 10 µM (LOX IMVI): 21.3%
inhibition at 10 µM (M14): 40.3%
inhibition at 10 µM (MALME-3M): 21%
inhibition at 10 µM (MDA-MB-435): 27.3%
inhibition at 10 µM (SK-MEL-28): 24.6%
inhibition at 10 µM (SK-MEL-2): 23.1%
inhibition at 10 µM (SK-MEL-5): 34.9%
inhibition at 10 µM (UACC-257): 25.4%
inhibition at 10 µM (UACC-62): 44.5%
inhibition at 10 µM (IGROV1): < 5%
inhibition at 10 µM (NCI/ADR-RES): < 5%
inhibition at 10 µM (OVCAR-3): 23.2%
inhibition at 10 µM (OVCAR-4): 42.5%
inhibition at 10 µM (OVCAR-8): 5.25%
inhibition at 10 µM (786-0): 53.1%
inhibition at 10 µM (A498): 23.2%
inhibition at 10 µM (ACHN): 21.3%
inhibition at 10 µM (CAKI-1): 55.6%
inhibition at 10 µM (RXF 393): 55.3%
inhibition at 10 µM (SN12C): 21.3%
inhibition at 10 µM (TK-10): 23.8%
inhibition at 10 µM (UO-31): 38.5%
inhibition at 10 µM (DU-145): 14.7%
inhibition at 10 µM (PC-3): 50.9%
inhibition at 10 µM (BT-549): 21.5%
inhibition at 10 µM (HS 578T): 31.3%
inhibition at 10 µM (MCF-7): 48.8%
inhibition at 10 µM (MDA-MB-231/ATCC): 18.8%
inhibition at 10 µM (MDA-MB-468): 40%
inhibition at 10 µM (T-47D): 46.2%
IC50 (hCA IX): 0.22 ± 0.01 µM
IC50 (hCA XII): 0.27 µM and 0.272 µM
